Assay results as given in PubChem BioAssay AID330 (DTP/NCI, 2004).
Several values for one entry are separate records, joined by “and”; a condition that tells them apart may be missing. Equal values may be shown once. Toxic doses and inconclusive results are not listed. How the source made its calls: active means survival T/C of 150% or more; inactive means T/C below 125% in these data. Square brackets hold non-standard residues; d marks the D form. Peptide text beside a SMILES is read from it. * marks the point of attachment. Cbz = O=C(OCc1ccccc1)*; Nva = CCC[CH](N)C(=O)O

Tested on: P388 leukemia ip, CD2F1 mice, survival T/C
Test: NCI In Vivo Anticancer Drug Screen. Data for tumor model P388 Leukemia (intraperitoneal) in CD2F1 (CDF1) mice
Conditions: endpoint: median survival time, higher = longer survival
Method in brief: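 Mice carrying the transplanted tumor received test compound or vehicle. Survival was recorded in each group, and the value is the treated-group measurement divided by that of the vehicle-treated control group.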

[1] = dose: 12.5 mg/kg/injection, schedule: Q01DX005 (ip), vehicle: saline with Tween-80
[2] = dose: 25.0 mg/kg/injection, schedule: Q01DX005 (ip), vehicle: saline with Tween-80
[3] = dose: 50.0 mg/kg/injection, schedule: Q01DX005 (ip), vehicle: saline with Tween-80
[4] = dose: 50.0 mg/kg/injection, schedule: Q01DX009 (ip), vehicle: saline with Tween-80
[5] = dose: 100.0 mg/kg/injection, schedule: Q01DX009 (ip), vehicle: saline with Tween-80
[6] = dose: 200.0 mg/kg/injection, schedule: Q01DX009 (ip), vehicle: saline with Tween-80
[7] = dose: 100.0 mg/kg/injection, schedule: Q01DX005 (ip), vehicle: saline with Tween-80
[8] = dose: 200.0 mg/kg/injection, schedule: Q01DX005 (ip), vehicle: saline with Tween-80
[9] = dose: 50.0 mg/kg/injection, schedule: Q04DX003 (ip), vehicle: Klucel (hydroxypropylcellulose) (HPC)
[10] = dose: 100.0 mg/kg/injection, schedule: Q04DX003 (ip), vehicle: Klucel (hydroxypropylcellulose) (HPC)
[11] = dose: 50.0 mg/kg/injection, schedule: Q01DX009 (ip), vehicle: Klucel (hydroxypropylcellulose) (HPC)
[12] = dose: 100.0 mg/kg/injection, schedule: Q01DX009 (ip), vehicle: Klucel (hydroxypropylcellulose) (HPC)
[13] = dose: 200.0 mg/kg/injection, schedule: Q01DX009 (ip), vehicle: Klucel (hydroxypropylcellulose) (HPC)
[14] = dose: 60.0 mg/kg/injection, schedule: Q01DX005 (ip), vehicle: saline with Tween-80
[15] = dose: 120.0 mg/kg/injection, schedule: Q01DX005 (ip), vehicle: saline with Tween-80
[16] = dose: 50.0 mg/kg/injection, schedule: Q01DX005 (ip), vehicle: Klucel (hydroxypropylcellulose) (HPC)
[17] = dose: 25.0 mg/kg/injection, schedule: Q01DX009 (ip), vehicle: saline with Tween-80
[18] = dose: 50.0 mg/kg/injection, schedule: Q01DX009 (ip), vehicle: saline
[19] = dose: 100.0 mg/kg/injection, schedule: Q01DX009 (ip), vehicle: saline

Measured: T/C

CCC(O)c1ccco1 (stereo not given)
inactive: [1] 109 % of control | [2] 100 % of control | [3] 111 % of control and 112 % of control

Oc1cc2c(cc1C1COc3cc(OCc4ccccc4)ccc3C1)OCO2 (stereo not given)
inactive: dose: 50.0 mg/kg/injection, schedule: Q01DX001 (ip), vehicle: Klucel (hydroxypropylcellulose) (HPC) 95 % of control | dose: 100.0 mg/kg/injection, schedule: Q01DX001 (ip), vehicle: Klucel (hydroxypropylcellulose) (HPC) 90 % of control | dose: 200.0 mg/kg/injection, schedule: Q01DX001 (ip), vehicle: Klucel (hydroxypropylcellulose) (HPC) 93 % of control

N=C(Oc1ccccc1[N+](=O)[O-])c1ccccc1
inactive: [4] 90 % of control and 94 % of control | [5] 100 % of control and 95 % of control | [6] 102 % of control and 93 % of control | dose: 400.0 mg/kg/injection, schedule: Q01DX009 (ip), vehicle: saline with Tween-80 88 % of control

C=C1CC2(OC1=O)C(C1COC(C)(C)O1)OC1OC(C)(C)OC12 (stereo not given)
inactive: dose: 25.0 mg/kg/injection, schedule: Q04DX002 (ip), vehicle: saline 96 % of control | [3] 105 % of control | dose: 50.0 mg/kg/injection, schedule: Q04DX002 (ip), vehicle: saline 99 % of control | [7] 110 % of control | dose: 100.0 mg/kg/injection, schedule: Q04DX002 (ip), vehicle: saline 104 % of control | [8] 105 % of control

O=[N+]([O-])c1cccc(N=Cc2ccc(N(CCCl)CCCl)cc2)c1
inactive: [9] 106 % of control | [10] 104 % of control | dose: 200.0 mg/kg/injection, schedule: Q04DX003 (ip), vehicle: Klucel (hydroxypropylcellulose) (HPC) 100 % of control

CC(Cl)CN=NNc1ccc(C#N)cc1 (stereo not given)
inactive: dose: 12.5 mg/kg/injection, schedule: Q01DX009 (ip), vehicle: distilled water + Tween-80 99 % of control | dose: 25.0 mg/kg/injection, schedule: Q01DX009 (ip), vehicle: distilled water + Tween-80 100 % of control | dose: 50.0 mg/kg/injection, schedule: Q01DX009 (ip), vehicle: distilled water + Tween-80 100 % of control | dose: 100.0 mg/kg/injection, schedule: Q01DX009 (ip), vehicle: distilled water + Tween-80 104 % of control | dose: 200.0 mg/kg/injection, schedule: Q01DX009 (ip), vehicle: distilled water + Tween-80 119 % of control

CC1=NOC(=O)/C1=C/c1ccc2c(c1)OCO2
inactive: [3] 106 % of control | [7] 105 % of control | [8] 113 % of control

CNCCCC12CC(c3ccccc31)c1ccccc12
inactive: [4] 94 % of control

CC12CC3CC(C)(C1)CC(C/C=N/NC(N)=O)(C3)C2
inactive: [11] 102 % of control | [12] 92 % of control | [13] 99 % of control

Cc1nc(Br)c(Br)n1C
inactive: [14] 93 % of control | [15] 88 % of control

CCCC(NC(=O)OCc1ccccc1)C(=O)NC(Cc1ccc(O)cc1)C(=O)O (stereo not given) (Cbz-[Nva]-Tyr-OH; configuration not given here)
inactive: [16] 102 % of control | dose: 100.0 mg/kg/injection, schedule: Q01DX005 (ip), vehicle: Klucel (hydroxypropylcellulose) (HPC) 105 % of control | dose: 200.0 mg/kg/injection, schedule: Q01DX005 (ip), vehicle: Klucel (hydroxypropylcellulose) (HPC) 94 % of control

CC(=O)Oc1c(Cl)c(Cl)c(C#N)c(Cl)c1C#N
inactive: [17] 100 % of control and 105 % of control | [4] 105 % of control

CN1CCC(O)(c2ccc(Br)cc2)C(C(=O)c2ccc(Br)cc2)C1 (stereo not given)
inactive: dose: 12.5 mg/kg/injection, schedule: Q01DX005 (ip), vehicle: Klucel (hydroxypropylcellulose) (HPC) 100 % of control | dose: 25.0 mg/kg/injection, schedule: Q01DX005 (ip), vehicle: Klucel (hydroxypropylcellulose) (HPC) 100 % of control | [16] 90 % of control and 91 % of control

CS(C)=C1C(=O)C(=O)C(=S(C)C)C(=O)C1=O
inactive: [14] 107 % of control | [15] 104 % of control | dose: 240.0 mg/kg/injection, schedule: Q01DX005 (ip), vehicle: saline with Tween-80 100 % of control

COc1ccc(/C(C#N)=C/c2ccncc2)cc1OC
inactive: dose: 12.5 mg/kg/injection, schedule: Q01DX009 (ip), vehicle: saline 102 % of control | dose: 25.0 mg/kg/injection, schedule: Q01DX009 (ip), vehicle: saline 97 % of control | [18] 101 % of control | [19] 101 % of control

O=C(O)CC1OCC=C2C[N+]3([O-])CCC45c6ccccc6NC4C1C2CC53 (stereo not given)
inactive: dose: 15.0 mg/kg/injection, schedule: Q01DX005 (ip), vehicle: saline with Tween-80 105 % of control | dose: 30.0 mg/kg/injection, schedule: Q01DX005 (ip), vehicle: saline with Tween-80 105 % of control | [14] 99 % of control and 101 % of control

CC(=O)Oc1c2ccsc2cc2sccc12
inactive: dose: 12.5 mg/kg/injection, schedule: Q04DX003 (ip), vehicle: Klucel (hydroxypropylcellulose) (HPC) 95 % of control | dose: 25.0 mg/kg/injection, schedule: Q04DX003 (ip), vehicle: Klucel (hydroxypropylcellulose) (HPC) 94 % of control | [9] 94 % of control | [10] 100 % of control

O=c1[nH][nH]c2c1SCc1ccccc1-2
inactive: [4] 110 % of control | [5] 117 % of control | [6] 86 % of control

COC1CC(=O)C2(C)C3CCC4(C)C(C(C)C5CC(C)=C(CO)C(=O)O5)CCC4C3CC3OC32C1O (stereo not given)
inactive: dose: 10.12 mg/kg/injection, schedule: Q01DX009 (ip), vehicle: saline + alcohol 105 % of control | dose: 20.25 mg/kg/injection, schedule: Q01DX009 (ip), vehicle: saline + alcohol 96 % of control | dose: 40.5 mg/kg/injection, schedule: Q01DX009 (ip), vehicle: saline + alcohol 94 % of control

CN(C)CCCO[Si](C)(c1ccccc1)c1ccc(F)cc1 (stereo not given)
inactive: dose: 12.5 mg/kg/injection, schedule: Q01DX009 (ip), vehicle: saline with Tween-80 105 % of control | [17] 101 % of control | [4] 110 % of control and 97 % of control | [5] 86 % of control

CC1(C)OCC(C2OC(C)(C)OC2C2OC(O)C=CC2=O)O1 (stereo not given)
inactive: dose: 0.78 mg/kg/injection, schedule: Q01DX009 (ip), vehicle: distilled water + Tween-80 108 % of control and 103 % of control | dose: 1.56 mg/kg/injection, schedule: Q01DX009 (ip), vehicle: distilled water + Tween-80 116 % of control and 103 % of control | dose: 3.13 mg/kg/injection, schedule: Q01DX009 (ip), vehicle: distilled water + Tween-80 100 % of control and 94 % of control | dose: 6.25 mg/kg/injection, schedule: Q01DX009 (ip), vehicle: distilled water + Tween-80 100 % of control

Cc1cc(NC(=O)c2ccc(N=Nc3cc(S(=O)(=O)O)c4ccccc4c3O)cc2)ccc1N=Nc1ccc2cc(S(=O)(=O)O)cc(S(=O)(=O)O)c2c1
inactive: [1] 102 % of control and 97 % of control | [2] 99 % of control and 97 % of control | [3] 101 % of control and 111 % of control | [7] 102 % of control and 109 % of control and 117 % of control | [8] 101 % of control

COc1cccc(C(OC(=O)c2ccccc2)c2nncc3ccccc23)c1OC (stereo not given)
inactive: [11] 100 % of control | [12] 103 % of control | [13] 100 % of control

CN(C)[C@@H]1C(=O)C(C(=O)NCNC2(C(=O)O)CCCC2)=C(O)[C@@]2(O)C(=O)C3=C(O)c4c(O)cccc4[C@@](C)(O)[C@H]3C[C@@H]12
inactive: [18] 103 % of control | [19] 95 % of control | dose: 100.0 mg/kg/injection, schedule: Q01DX009 (ip), vehicle: suspension in saline 91 % of control | dose: 200.0 mg/kg/injection, schedule: Q01DX009 (ip), vehicle: saline 106 % of control | dose: 200.0 mg/kg/injection, schedule: Q01DX009 (ip), vehicle: suspension in saline 93 % of control | dose: 400.0 mg/kg/injection, schedule: Q01DX009 (ip), vehicle: saline 98 % of control | dose: 400.0 mg/kg/injection, schedule: Q01DX009 (ip), vehicle: suspension in saline 111 % of control

O=C1SC(c2ccccc2)=S=C1c1ccccc1
inactive: [4] 104 % of control | [5] 104 % of control | [6] 124 % of control

O=S(=O)(O)c1ccc2nccn2c1
inactive: dose: 100.0 mg/kg/injection, schedule: Q01DX001 (ip), vehicle: suspension in saline 100 % of control | dose: 200.0 mg/kg/injection, schedule: Q01DX001 (ip), vehicle: suspension in saline 89 % of control | dose: 400.0 mg/kg/injection, schedule: Q01DX001 (ip), vehicle: suspension in saline 100 % of control
